Measurements as given in PubChem BioAssay AID489035 (Sanford-Burnham Center for Chemical Genomics, 2010).
pIC50: −log10 of the molar value. Calls of active or inactive are those of the source. The rule behind the calls is not given here.

What follows are compounds tested on Jurkat NF-kB reporter, TCR-induced, luciferase luminescence (assay: T-cell NF-kB luciferase reporter inhibition – Jurkat cells, luminescence, dose response (AID 489035)).

Row | Compound | pIC50 | IC50
1 | Cc1ccc(C)c(NS(=O)(=O)c2ccc(-c3cnc(C4CC4)o3)cc2)c1 | 4.86 | 
2 | O=C(NC(Nc1nc2ccc([N+](=O)[O-])cc2s1)(C(F)(F)F)C(F)(F)F)c1ccccc1 |  | > 80 µM (inactive)
3 | Cc1ccc(C(=O)c2cc([N+](=O)[O-])ccc2N2CCCCC2)cc1 |  | > 80 µM (inactive)
4 | O=[N+]([O-])c1nn(-c2ccc3c(c2)OCCO3)n(O)c1=Nc1ccccc1 | 5.98 | 
5 | Cc1oc(-c2ccc(Cl)cc2)nc1CS(=O)CC(=O)NCCCN1CCN(Cc2ccccc2)CC1 (centres undefined) |  | 26.4 µM (inactive)
6 | Cc1cc(C)cc(C(=O)N2CC(=O)Nc3ccccc32)c1 | 4.80 | 
7 | CCOC(=O)N1CCN(C(=O)C2CCCN(Cc3nc(-c4ccc(Cl)cc4)oc3C)C2)CC1 (centres undefined) |  | > 80 µM (inactive)
8 | CCCN(CCC)C1=CC(=[N+]2CCCC2)CC(C)(C)C1 |  | > 80 µM (inactive)
9 | CC(C)(C)c1nnc(N/N=C/c2ccccc2O)n(N)c1=O | 4.91 | 
10 | COc1cc(C(=O)N2CCN(c3cccc(C)c3C)CC2)cc(OC)c1OC |  | > 80 µM (inactive)
11 | O=C(Nc1ccc(Cl)c(S(=O)(=O)N2CCOCC2)c1)c1ccc(OCC2CCCO2)cc1 (centres undefined) | 4.74 | 
12 | CC(C)CCOc1cccc(OCC(=O)Nc2ccncc2)c1 |  | > 80 µM (inactive)
13 | CC(=O)O[C@H]1C(=O)[C@]2(C)[C@H]([C@H](OC(=O)c3ccccc3)[C@]3(O)C[C@H](OC(=O)[C@H](O)[C@@H](NC(=O)c4ccccc4)c4ccccc4)C(C)=C1C3(C)C)[C@]1(OC(C)=O)CO[C@@H]1C[C@@H]2O | 6.29 | 
14 | O=C(Nc1nc2ccc(S(=O)(=O)N3CCCC3)cc2s1)C1CCCCC1 |  | > 80 µM (inactive)
15 | COc1ccc2c(c1)/C(=C/c1cnc[nH]1)C(=O)N2 | 5.19 | 
16 | O=C(COc1ccc(C(=O)c2ccccc2)cc1)NCc1ccc(F)cc1 |  | 29.2 µM (inactive)
17 | COc1ccc(C(=O)/C(C#N)=N/Nc2ccc([N+](=O)[O-])cc2)cc1 | 5.02 | 
18 | CCOC(=O)c1ccccc1NS(=O)(=O)c1ccc(OCC)cc1 |  | 78.3 µM (inactive)
19 | O=C(NCCc1ccccc1)c1ccc2c(c1)OCCO2 | 5.79 | 
20 | COc1ccc(C)c(Cn2c(-c3nonc3N)nc3ccccc32)c1 |  | > 80 µM (inactive)
21 | CCCCCCCCC[n+]1cccc2c3ccccc3ccc21 | 5.06 | 
22 | O=C(Nc1cccc(C(F)(F)F)c1)c1sc(Cl)nc1C(F)(F)F | 6.23 | 
23 | CCC(O)C1CCN(C(=O)c2cc(COc3ccc4ncccc4c3)on2)CC1 (centres undefined) | 6.16 | 
24 | Cc1c(C(=O)OCC(C)C)[nH]c2c1C(=O)CC(c1cccs1)C2 (centres undefined) |  | > 80 µM (inactive)
25 | CC1=Nc2ccccc2/C1=C\c1sc(Nc2ccc(C)cc2)nc1O |  | > 80 µM (inactive)

Row | Compound | pIC50 | IC50
26 | COc1cccc(OC)c1C1=NCC(=O)Nc2c1oc1ccc(Br)cc21 |  | > 80 µM (inactive)
27 | CC(Oc1ccc(Cl)cc1Cl)C(=O)Nc1ccncc1 (centres undefined) |  | 61.3 µM (inactive)
28 | Cc1ccc(Nc2nc(-c3c(C)nc4ncccn34)cs2)cc1 | 4.73 | 
29 | Cc1cc(C)c(S(=O)(=O)Nc2ccc3c4c(cccc24)CC3)c(C)c1 |  | 61 µM (inactive)
30 | CCOC(=O)c1[nH]c(C)c(C(=O)Nc2ccc(C)cc2C)c1C |  | > 80 µM (inactive)
31 | Cc1ccc(S(=O)(=O)/N=C2\C=C(Nc3ccc(O)cc3)C(=O)c3ccccc32)cc1 | 6.21 | 
32 | Cc1cccc(OCCNC(=O)c2ccc(Cl)c(S(=O)(=O)NCc3cccnc3)c2)c1 |  | > 80 µM (inactive)
33 | CCc1ccc2nc(SCC(=O)Nc3ccccc3N3CCOCC3)c(C#N)cc2c1 |  | 32.4 µM (inactive)
34 | Cc1ccc(S(=O)(=O)Nc2ccccc2-c2ccccc2)cc1 |  | 22.6 µM (inactive)
35 | O=C(Nc1ccc(C(F)(F)F)cc1)c1cccn(Cc2ccc3c(c2)OC(F)(F)O3)c1=O | 4.76 | 
36 | Cc1ccc(C[n+]2c(-c3ccc(C)cc3)cc(-c3ccc(C)cc3)cc2-c2ccc(C)cc2)cc1 | 5.63 | 
37 | CCc1ccc(N2C(=O)C(Cl)=C(Nc3ccc(C(=O)N4CCCC4)cc3)C2=O)cc1 | 5.20 | 
38 | Cc1nn(-c2ccccc2Cl)c(Cl)c1/C=N/Nc1nc2ccccc2s1 | > 6.80 | 
39 | CC(=O)c1c(C)[nH]c(C(=O)OCC(=O)Nc2ccc(C)cc2[N+](=O)[O-])c1C |  | > 80 µM (inactive)
40 | NC(=O)CC(NC(=O)c1ccc(Br)cc1)c1ccc(N2CCCCCC2)c([N+](=O)[O-])c1 (centres undefined) | 5.60 | 
41 | Cc1ccc(NC(=O)CSc2nc(-c3ccco3)cc(C(F)(F)F)n2)cc1C |  | > 80 µM (inactive)
42 | Cc1cc(C)cc(NC(=O)c2ccc([N+](=O)[O-])o2)c1 | 6.02 | 
43 | C=CCn1c(C)cc(C2=NNC(=NCC)SC2)c1C | > 6.80 | 
44 | CCC(=O)NC(c1ccc(C)cc1)c1ccc2cccnc2c1O (centres undefined) | 4.94 | 
45 | COc1ccc(CS(=O)/C(Cl)=C(/Cl)C(=O)Nc2ccc(OC)nc2)cc1 (centres undefined) | 6.27 | 
46 | C[C@]12CCC3C(CCC4=CC(O)CC[C@@]43/C=N/O)C1(O)CCC2C1=CC(=O)OC1 (some centres undefined) |  | 47.8 µM (inactive)
47 | COc1cccc(N2CCN(c3ncnc4c3cnn4-c3ccc(C)cc3C)CC2)c1 | 4.96 | 
48 | CCn1ncc(C2=NOC(C(=O)NCc3ccccc3)C2)c1C (centres undefined) | > 6.80 | 
49 | COc1cc(-c2c(-c3cc(OC)c(OC)c(OC)c3)noc2C)ccc1F |  | 31.6 µM (inactive)
50 | O=C(c1ccc(CS(=O)c2ccccc2Cl)o1)N1CCN(c2ccccn2)CC1 (centres undefined) |  | 68.2 µM (inactive)

Row | Compound | pIC50 | IC50
51 | CCCCCC(=O)N[C@@H](c1ccccc1)[C@@H](O)C(=O)O[C@H]1C[C@@]2(O)[C@@H](OC(=O)c3ccccc3)C3[C@](C)(C(=O)[C@H](OC(C)=O)C(=C1C)C2(C)C)[C@@H](O)C[C@H]1OC[C@@]31OC(C)=O (some centres undefined) |  | 32.3 µM (inactive)
52 | O=c1oc2ccccc2cc1-c1cn(-c2ccccc2)c(=S)[nH]1 | 4.89 | 
53 | Cc1ccc2[nH]c3c(c2c1)CCCC3NC(=O)CCl (centres undefined) | 6.49 | 
54 | Cc1nc2ccccc2c2c1CC(C(C)(Cl)Br)O2 (centres undefined) |  | > 80 µM (inactive)
55 | COc1ccc(CC(=O)Nc2cccc(-c3nnc(-c4cccc(C)c4)o3)c2)cc1OC |  | 47.6 µM (inactive)
56 | CCN(CC)c1ccc(/C=C/c2ccc3ccc(OC)cc3[n+]2CC)cc1 |  | 51.9 µM (inactive)
57 | COc1cc(NC(=O)N2CCNC2=O)cc(C(=O)Nc2cccc(C(F)(F)F)c2)c1 |  | > 80 µM (inactive)
58 | COc1cc(C2C(C#N)=C(N)Oc3cc(N(C)C)ccc32)cc2c1OCO2 (centres undefined) |  | > 80 µM (inactive)
59 | COc1ccc([N+](=O)[O-])cc1Nc1c2ccccc2nc2ccccc12 |  | 50.7 µM (inactive)
60 | CCN(CC)c1ccc2nc3ccc(N)cc3[n+](-c3ccccc3)c2c1 | 5.58 | 
61 | CCN(CC)c1ccc(-c2nn3c(-c4n[nH]c5c4CCC5)nnc3s2)cc1 |  | 47.1 µM (inactive)
62 | CCOC(=O)N/N=C/c1c(C)nn(-c2cccc(C(F)(F)F)c2)c1Cl |  | > 80 µM (inactive)
63 | CC(C)(C)c1ccc(C(=O)O/N=C(\N)c2ccccc2)cc1 | 5.64 | 
64 | Cc1ccc2c(c1)Oc1ccc(NC(=O)CCl)cc1C(=O)N2 | 5.28 | 
65 | COc1cc(C(=O)OCCc2cc3ccccc3c(=O)o2)cc(OC)c1OC |  | 21.6 µM (inactive)
66 | CCCCCCCCCn1c2c(c(=N)c3c1CCC3)CCCC2 | 5.47 | 
67 | CC[C@@]1(O)C(=O)OCc2c1cc1n(c2=O)Cc2cc3c(N)cccc3nc2-1 | > 6.80 | 
68 | CNC[C@@H](CC1CCCCC1)NC[C@H](CC(C)C)NCCc1cccc(C(F)(F)F)c1 | 5.30 | 
69 | O=C(N/N=C/c1c(O)ccc2ccccc12)c1cccc(C(F)(F)F)c1 | 4.98 | 
70 | CC(C)c1oc(=O)cc2c1[C@@H](O)[C@H]1OC(=O)[C@@]3(C)CC[C@@H](O)[C@@]2(C)C13 (some centres undefined) | 5.60 | 
71 | CCOC(=O)c1[nH]c(C)c(C(=O)Nc2ccccc2C)c1C | > 6.80 | 
72 | CCc1ccc(S(=O)(=O)/N=C2\C=C(Nc3ccc(O)cc3)C(=O)c3ccccc32)cc1 | 5.59 | 
73 | C[C@@H]1C=CC(=O)O[C@@H]1c1ccc(Cl)cc1 | 6.42 | 
74 | COc1ccc2c(c1)C(=O)N1[C@H]3c4cc(Br)ccc4OC[C@@H]3[C@H](c3ccccc3)[C@]1(C)C(=O)N2 |  | > 80 µM (inactive)
75 | CCOc1ccc(S(=O)(=O)NCc2ccccn2)cc1NC(=O)c1ccccc1F |  | > 80 µM (inactive)

Row | Compound | pIC50 | IC50
76 | CC(=O)N(C)C1=C(N2CCOCC2)C(=O)c2ccccc2C1=O | 5.01 | 
77 | CC(C)c1oc(=O)cc2c1[C@@H](O)[C@H]1OC(=O)[C@@]3(C)C[C@@H](O)[C@@H](O)[C@@]2(C)C13 (some centres undefined) | 5.97 | 
78 | CCCCCCCn1c2c(c(=N)c3ccccc31)CCC2 | 4.91 | 
79 | Cc1cnc(NC(=O)c2ccc3c(c2)OCCO3)s1 | 6.00 | 
80 | COCCCNC(=O)C(=O)Nc1ccc2c(c1)N(S(=O)(=O)c1cccs1)CCC2 | 5.26 | 
81 | c1ccc(-c2noc(-c3ccc4c(c3)OCO4)n2)nc1 | 6.26 | 
82 | COc1cccc(N/C(N)=N/c2nc(CSc3ccccn3)cc(=O)[nH]2)c1 | 5.33 | 
83 | CC(C)(C)c1ccc(C(=O)O/N=C(\N)c2ccccn2)cc1 | 5.02 | 
84 | COc1cc(NS(=O)(=O)c2ccc(C)cc2)c2ncccc2c1 | 5.67 | 
85 | CCc1ccc(/C=N/NC(=O)c2cc(C3CC3)nc3ccccc23)s1 |  | 20 µM (inactive)
86 | CCN1/C(=C/c2ccc3ccccc3[n+]2CC)C=Cc2ccccc21 | 4.95 | 
87 | CN=c1scc(-c2cccs2)n1/N=C/c1ccccc1O | 5.68 | 
88 | COc1cc2c(c(OC)c1OC)-c1ccc(OC)c(=O)cc1[C@@H](NC(C)=O)CC2 |  | > 80 µM (inactive)
89 | COC(=O)c1nn(-c2ccc3c(c2)CCN3C(C)=O)cc1O | 5.94 | 
90 | Cn1nc(CC(=O)Nc2ccc(N3CCN(C(=O)OC(C)(C)C)CC3)cc2)c2ccccc2c1=O |  | > 80 µM (inactive)
91 | Cc1ccc2oc(/N=C(\N)NC(=O)C(C)(C)C)nc2c1 | 5.18 | 
92 | CC(Oc1ccc(Cl)cc1Cl)c1nc(-c2ccc(NC(=O)c3ccncc3)cc2)no1 (centres undefined) |  | > 80 µM (inactive)
93 | CC(C)(C)c1csc(Sc2ccc([N+](=O)[O-])cn2)n1 | 5.49 | 
94 | COC(=O)C1=C(CN2CCCc3ccccc32)NC(=O)NC1c1ccc(F)cc1 (centres undefined) | 6.00 | 
95 | Cc1ccc(N/C(N)=N/c2nc(CSc3nnc(C)s3)cc(=O)[nH]2)c(C)c1 |  | 42.1 µM (inactive)
96 | CN(C)c1ccc(-c2nn3c(-c4ccccc4Cl)nnc3s2)cc1 |  | > 80 µM (inactive)
97 | CN(C)S(=O)(=O)c1ccc(Nc2nc(C3CC3)nc3c2nnn3Cc2ccccc2Cl)cc1 |  | > 80 µM (inactive)
98 | Cc1cccc(N2CCN(C(=O)c3ccc(CS(=O)(=O)c4ccccc4C)o3)CC2C)c1 (centres undefined) | 5.02 | 
99 | COc1ccc(C2=Nn3c(nnc3-c3ccccc3OC)SC2)cc1OC1CCCC1 | 4.82 | 
